Values of other authors as cited in article PMC6048117 (Scientific Reports, 2018).
Where two headings read alike, the source gives them in different places.

How the values were obtained:
[1] = system: nigral 6-OHDA partial or full lesion rat model
[2] = system: MPTP model

Which “Efficacy in nigral 6-OHDA partial or full lesion rat model” value [1] does the source give for “liraglutide (HAEGTFTSDVSSYLEGQAAKEFIAWLVRGRG; chains of the INN, looked up) [GLP-1R agonist]” here?
Its value is “failed to demonstrate efficacy”.

What about the “Neuroprotection in MPTP model” value ([2]; 25 nmol/kg) of the same substance?
Its value is “did demonstrate neuroprotection”.

For lixisenatide, which “Neuroprotection in MPTP model” value ([2]; 10 nmol/kg) is on record?
Its value is “did demonstrate neuroprotection”.
